# Reference: ChEMBL document CHEMBL5500358, “Identification of CH2-linked quinolone-aminopyrimidine hybrids as potent anti-MRSA agents: Low resistance potential and lack of cross-resistance with fluoroquinolone antibiotics” (Eur J Med Chem, 2024)
# Calls of active or inactive are those of the source. No cut-off for these calls is given here.
# What was measured:
# Staphylococcus aureus [1] = assay: Antibacterial activity against fluoroquinolone-sensitive methicillin resistant Staphylococcus aureus USA500 incubated for 16 to 18 hrs by absorbance based analysis; type: functional; settings: time 16-18 hrs
# Staphylococcus aureus [2] = assay: Antibacterial activity against fluoroquinolone-sensitive methicillin resistant Staphylococcus aureus ATCC 33591 incubated for 16 to 18 hrs by absorbance based analysis; type: functional; settings: time 16-18 hrs
# Escherichia coli = assay: Antibacterial activity against Escherichia coli ATCC 25922 incubated for 16 to 18 hrs by absorbance based analysis; type: functional; settings: time 16-18 hrs
# Staphylococcus aureus [3] = assay: Antibacterial activity against fluoroquinolone/methicillin resistant Staphylococcus aureus Mu50 incubated for 16 to 18 hrs by absorbance based analysis; type: functional; settings: time 16-18 hrs
# [4] = Metabolic stability in rat liver microsomes assessed as microsomal intrinsic clearance at 1 uM by LC-MS/MS analysis; type: ADME, Microsome; settings: read-out: CLH
# A549 = assay: Cytotoxicity against human A549 cells assessed as reduction in cell viability at 100 uM incubated for 24 hrs by CCK-8 assay; type: toxicity, cell-based; settings: a549, 24 h
# HEK293 = assay: Cytotoxicity against HEK293 cells assessed as reduction in cell viability at 100 uM incubated for 24 hrs by CCK-8 assay; type: toxicity, cell-based; settings: human, hek293, 24 h
# [5] = Metabolic stability in human liver microsomes assessed as drug elimination rate constant at 1 uM by LC-MS/MS analysis; type: ADME, Microsome
# [6] = Metabolic stability in rat liver microsomes assessed as compound remaining at 1 uM measured after 60 mins by LC-MS/MS analysis; type: ADME, Microsome; settings: read-out: Stability
# [7] = Metabolic stability in human liver microsomes assessed as elimination half life at 1 uM by LC-MS/MS analysis; type: ADME, Microsome; settings: read-out: beta t1/2
# [8] = Metabolic stability in human liver microsomes assessed as microsomal intrinsic clearance at 1 uM by LC-MS/MS analysis; type: ADME, Microsome; settings: read-out: CLH
# [9] = Metabolic stability in human liver microsomes assessed as liver intrinsic clearance at 1 uM by LC-MS/MS analysis; type: ADME, Microsome; settings: read-out: CLH
# [10] = Metabolic stability in human liver microsomes assessed as compound remaining at 1 uM measured after 60 mins by LC-MS/MS analysis; type: ADME, Microsome; settings: read-out: Stability
# [11] = Metabolic stability in rat liver microsomes assessed as liver intrinsic clearance at 1 uM by LC-MS/MS analysis; type: ADME, Microsome; settings: read-out: CLH
# [12] = Metabolic stability in rat liver microsomes assessed as drug elimination rate constant at 1 uM by LC-MS/MS analysis; type: ADME, Microsome
# [13] = Metabolic stability in rat liver microsomes assessed as elimination half life at 1 uM by LC-MS/MS analysis; type: ADME, Microsome; settings: read-out: beta t1/2
# Staphylococcus aureus [14] = assay: Antibacterial activity against methicillin resistant Staphylococcus aureus ATCC 33591 measured after 15 passages; type: functional
SMILES,MIC (Staphylococcus aureus [1]) [µg/mL],MIC (Staphylococcus aureus [2]) [µg/mL],MIC (Escherichia coli) [µg/mL],MIC (Staphylococcus aureus [3]) [µg/mL],other results
O=C(O)c1cn(C2CC2)c2cc(N3CCNCC3)c(F)cc2c1=O [CIPROFLOXACIN],0.39,0.25,–,–,–
O=C(O)c1cn(C2CC2)c2cc(Nc3nccc(Cc4cccc(Cl)c4)n3)c(F)cc2c1=O,6.25,2,> 64,6.25,–
O=C(O)c1cn(C2CC2)c2cc(Nc3nccc(Cc4ccc(Cl)cc4Cl)n3)ccc2c1=O,0.39,0.25,> 64,0.78,–
Cc1ccc(Cc2ccnc(Nc3cc4c(cc3F)c(=O)c(C(=O)O)cn4C3CC3)n2)cc1,–,2,> 64,–,–
Cc1cccc(Cc2ccnc(Nc3cc4c(cc3F)c(=O)c(C(=O)O)cn4C3CC3)n2)c1,–,4,> 64,–,–
COc1cccc(Cc2ccnc(Nc3cc4c(cc3F)c(=O)c(C(=O)O)cn4C3CC3)n2)c1,–,8,> 64,–,–
O=C(O)c1cn(C2CC2)c2cc(Nc3nccc(Cc4ccccc4Cl)n3)c(F)cc2c1=O,6.25,2,> 64,6.25,–
O=C(O)c1cn(C2CC2)c2cc(Nc3nccc(Cc4ccc(Cl)cc4)n3)c(F)cc2c1=O,1.56,1,> 64,3.12,–
Cc1ccc(Cc2ccnc(Nc3ccc4c(=O)c(C(=O)O)cn(C5CC5)c4c3)n2)c(C)c1,1.56,1,> 64,1.56,–
O=C(O)c1cn(C2CC2)c2cc(Nc3nccc(Cc4cccc(Cl)c4)n3)ccc2c1=O,1.56,0.5,> 64,1.56,–
Cc1ccc(Cc2ccnc(Nc3ccc4c(=O)c(C(=O)O)cn(C5CC5)c4c3)n2)cc1C,0.78,0.5,> 64,0.78,"microsomal CLint at 1 µM [4]: 23.4 µL/min/mg; Activity (A549): Toxic; Activity (HEK293): Toxic; k el at 1 µM [5]: 0.000233 s⁻¹; remaining at 1 h, 1 µM [6]: 49.6%; half-life at 1 µM [7]: 49.4 min; microsomal CLint at 1 µM [8]: 28.2 µL/min/mg; CLint scaled at 1 µM [9]: 26.6 mL/min/kg; remaining at 1 h, 1 µM [10]: 41.1%; CLint scaled at 1 µM [11]: 42.2 mL/min/kg; k el at 1 µM [12]: 0.0002 s⁻¹; half-life at 1 µM [13]: 59.2 min"
N#Cc1ccccc1Cc1ccnc(Nc2cc3c(cc2F)c(=O)c(C(=O)O)cn3C2CC2)n1,–,8,> 64,–,–
O=C(O)c1cn(C2CC2)c2cc(Nc3nccc(Cc4ccc(F)c(F)c4)n3)c(F)cc2c1=O,6.25,1,> 64,6.25,–
Cc1ccccc1Cc1ccnc(Nc2cc3c(cc2F)c(=O)c(C(=O)O)cn3C2CC2)n1,–,2,> 64,–,–
O=C(O)c1cn(C2CC2)c2cc(Nc3nccc(Cc4cccc(F)c4)n3)c(F)cc2c1=O,–,2,> 64,–,–
COc1ccccc1Cc1ccnc(Nc2cc3c(cc2F)c(=O)c(C(=O)O)cn3C2CC2)n1,–,4,> 64,–,–
O=C(O)c1cn(C2CC2)c2cc(Nc3nccc(Cc4ccc(F)c(F)c4)n3)ccc2c1=O,0.78,0.5,> 64,1.56,–

SMILES,MIC (Staphylococcus aureus [1]) [µg/mL],MIC (Staphylococcus aureus [2]) [µg/mL],MIC (Escherichia coli) [µg/mL],MIC (Staphylococcus aureus [3]) [µg/mL],other results
O=C(O)c1cn(C2CC2)c2cc(Nc3nccc(Cc4ccccc4F)n3)c(F)cc2c1=O,–,2,> 64,–,–
COc1ccc(Cc2ccnc(Nc3cc4c(cc3F)c(=O)c(C(=O)O)cn4C3CC3)n2)cc1,–,4,> 64,–,–
O=C(O)c1cn(C2CC2)c2cc(Nc3nccc(Cc4ccc(F)cc4)n3)c(F)cc2c1=O,–,2,> 64,–,–
Cc1ncc2n1-c1ccc(Cl)cc1C(c1ccccc1F)=NC2 [MIDAZOLAM],–,–,–,–,"microsomal CLint at 1 µM [4]: 1350 µL/min/mg; k el at 1 µM [5]: 0.00417 s⁻¹; remaining at 1 h, 1 µM [6]: 0.48%; half-life at 1 µM [7]: 2.77 min; microsomal CLint at 1 µM [8]: 1250 µL/min/mg; remaining at 1 h, 1 µM [10]: 0.691%; k el at 1 µM [12]: 0.00448 s⁻¹; half-life at 1 µM [13]: 2.58 min"
Cc1ccc(Cc2ccnc(Nc3cc4c(cc3F)c(=O)c(C(=O)O)cn4C3CC3)n2)c(C)c1,6.25,1,> 64,6.25,–
C[C@H]1COc2c(N3CCN(C)CC3)c(F)cc3c(=O)c(C(=O)O)cn1c23 [LEVOFLOXACIN ANHYDROUS],0.2,–,–,25,–
O=C(O)c1cn(C2CC2)c2cc(Nc3nccc(Cc4ccc(Cl)c(Cl)c4)n3)ccc2c1=O,1.56,0.5,> 64,1.56,–
Cc1ccc(Cc2ccnc(Nc3cc4c(cc3F)c(=O)c(C(=O)O)cn4C3CC3)n2)cc1C,25,2,> 64,25,–
O=C(O)c1cn(C2CC2)c2cc(Nc3nccc(Cc4ccccc4Cl)n3)ccc2c1=O,3.12,0.5,> 64,3.12,–
O=C(O)c1cn(C2CC2)c2cc(Nc3nccc(Cc4ccc(Cl)c(Cl)c4)n3)c(F)cc2c1=O,6.25,0.5,> 64,6.25,–
O=C(O)c1cn(C2CC2)c2cc(Nc3nccc(Cc4ccccc4)n3)c(F)cc2c1=O,–,4,> 64,–,–
Cc1ccc(Oc2ccnc(Nc3ccc4c(=O)c(C(=O)O)cn(C5CC5)c4c3)n2)cc1C,0.39,0.5,> 64,0.39,half-life at 1 µM [7]: 25.9 min; half-life at 1 µM [13]: 8.7 min
O=C(O)c1cn(C2CC2)c2cc(Nc3nccc(Cc4ccc(F)cc4F)n3)c(F)cc2c1=O,3.12,1,> 64,3.12,–
CN[C@H](CC(C)C)C(=O)N[C@H]1C(=O)N[C@@H](CC(N)=O)C(=O)N[C@H]2C(=O)N[C@H]3C(=O)N[C@H](C(=O)N[C@H](C(=O)O)c4cc(O)cc(O)c4-c4cc3ccc4O)[C@H](O)c3ccc(c(Cl)c3)Oc3cc2cc(c3O[C@@H]2O[C@H](CO)[C@@H](O)[C@H](O)[C@H]2O[C@H]2C[C@](C)(N)[C@H](O)[C@H](C)O2)Oc2ccc(cc2Cl)[C@H]1O [VANCOMYCIN],0.78,–,> 64,3.12,Activity (Staphylococcus aureus [14]): inactive
O=C(O)c1cn(C2CC2)c2cc(Nc3nccc(Cc4ccc(Cl)cc4)n3)ccc2c1=O,1.56,0.5,> 64,1.56,–
O=C(O)c1cn(C2CC2)c2cc(Nc3nccc(Cc4ccc(Cl)cc4Cl)n3)c(F)cc2c1=O,3.12,0.5,> 64,3.12,–
